biological target: T1, human PDE4D catalytic domain (Homo sapiens, UniProt Q08499); assay: PDE4 Assay; format: biochemical; conditions: human PDE4D catalytic domain (S380-L740), TR-FRET with FAM-cAMP; expressed as a range of IC50; read-out: PDE4 Potency Range
T1 construct: UniProt no; Q08499 [S380-L740]
Description: The human PDE4D catalytic domain (UniProt no. Q08499 [S380-L740]) was incubated with a mixture of non-labelled cAMP (cyclic adenosine monophosphate) and fluorescein amidite (FAM) conjugated cAMP and titrated test or reference compound. Following brief incubation the enzymatic reaction was stopped by addition of binding buffer containing nanoparticles with immobilized trivalent metal ions capable of binding 1) AMP phospho groups and 2) terbium (Tb) donor fluorophores. Subsequent excitation of the Tb donor triggers time-resolved FRET to adjacent FAM acceptor molecules resulting in light emission. In the presence of a PDE4 inhibitor, AMP generation was reduced resulting in a lower fluorescence signal. The cAMP phosphodiester is not bound by the detection system.
The results were calculated as the molar concentrations resulting in 50% inhibition of the substrate cleavage compared to controls samples, and are expressed as a range of IC50 (nM).

T1 sequence (Q08499 380-740): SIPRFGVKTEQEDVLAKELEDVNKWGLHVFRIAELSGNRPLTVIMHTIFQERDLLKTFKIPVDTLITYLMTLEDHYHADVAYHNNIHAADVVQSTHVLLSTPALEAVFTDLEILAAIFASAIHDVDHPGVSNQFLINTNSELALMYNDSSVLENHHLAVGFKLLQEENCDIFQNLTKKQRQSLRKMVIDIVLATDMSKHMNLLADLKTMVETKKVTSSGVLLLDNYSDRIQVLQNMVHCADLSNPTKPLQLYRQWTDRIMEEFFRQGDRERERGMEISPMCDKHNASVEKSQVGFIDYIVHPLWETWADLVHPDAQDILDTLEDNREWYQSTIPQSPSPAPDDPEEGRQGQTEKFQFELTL

| Compound | IC50 [nM] |
| --- | --- |
| CCc1nn(CCCOC(=O)C2CCCOC2)c2c1C(=O)NCC1(CCOCC1)C2 (stereo not drawn) [Example 58, 3-(3-ethyl-4-oxo-spiro[6,8-dihydro-5H-pyrazolo[4,3-c]azepine-7,4′-tetrahydropyran]-1-yl)propyl tetrahydropyran-3-carboxylate] | > 500 |
| CCc1nn(CCCOC(=O)C2CCOCC2)c2c1C(=O)NCC1(CCOCC1)C2 [Example 59, 3-(3-ethyl-4-oxo-spiro[6,8-dihydro-5H-pyrazolo[4,3-c]azepine-7,4′-tetrahydropyran]-1-yl)propyl tetrahydropyran-4-carboxylate] | > 500 |
| CCc1nn(CCCOC(=O)C2CCSC2)c2c1C(=O)NCC1(CCOCC1)C2 (stereo not drawn) [Example 60, 3-(3-ethyl-4-oxo-spiro[6,8-dihydro-5H-pyrazolo[4,3-c]azepine-7,4′-tetrahydropyran]-1-yl)propyl tetrahydrothiophene-3-carboxylate] | 100 to 500 |
| CCc1nn(CCCOC(=O)c2ccc(C)cn2)c2c1C(=O)NCC1(CCOCC1)C2 [Example 61, 3-(3-ethyl-4-oxo-spiro[6,8-dihydro-5H-pyrazolo[4,3-c]azepine-7,4′-tetrahydropyran]-1-yl)propyl 5-methylpyridine-2-carboxylate] | 100 to 500 |
| CCc1nn(CCCOC(=O)c2ncccc2C)c2c1C(=O)NCC1(CCOCC1)C2 [Example 62, 3-(3-ethyl-4-oxo-spiro[6,8-dihydro-5H-pyrazolo[4,3-c]azepine-7,4′-tetrahydropyran]-1-yl)propyl 3-methylpyridine-2-carboxylate] | > 500 |
| CCc1nn(CCCOC(=O)c2cc(C)ccn2)c2c1C(=O)NCC1(CCOCC1)C2 [Example 63, 3-(3-ethyl-4-oxo-spiro[6,8-dihydro-5H-pyrazolo[4,3-c]azepine-7,4′-tetrahydropyran]-1-yl)propyl 4-methylpyridine-2-carboxylate] | > 500 |
| CCc1nn(CCCOC(=O)c2cccc(C)n2)c2c1C(=O)NCC1(CCOCC1)C2 [Example 64, 3-(3-ethyl-4-oxo-spiro[6,8-dihydro-5H-pyrazolo[4,3-c]azepine-7,4′-tetrahydropyran]-1-yl)propyl 6-methylpyridine-2-carboxylate] | > 500 |
| CCc1nn(CCCOC(=O)c2cccnc2C)c2c1C(=O)NCC1(CCOCC1)C2 [Example 65, 3-(3-ethyl-4-oxo-spiro[6,8-dihydro-5H-pyrazolo[4,3-c]azepine-7,4′-tetrahydropyran]-1-yl)propyl 2-methylpyridine-3-carboxylate] | 100 to 500 |
| CCc1nn(CCCOC(=O)c2ncc(C)cn2)c2c1C(=O)NCC1(CCOCC1)C2 [Example 66, 3-(3-ethyl-4-oxo-spiro[6,8-dihydro-5H-pyrazolo[4,3-c]azepine-7,4′-tetrahydropyran]-1-yl)propyl 5-methylpyrimidine-2-carboxylate] | > 500 |
| CCc1nn(CCCOC(=O)c2ccnnc2C)c2c1C(=O)NCC1(CCOCC1)C2 [Example 67, 3-(3-ethyl-4-oxo-spiro[6,8-dihydro-5H-pyrazolo[4,3-c]azepine-7,4′-tetrahydropyran]-1-yl)propyl 3-methylpyridazine-4-carboxylate] | > 500 |
| CCc1nn(CCCOC(=O)c2ccnc(C)n2)c2c1C(=O)NCC1(CCOCC1)C2 [Example 68, 3-(3-ethyl-4-oxo-spiro[6,8-dihydro-5H-pyrazolo[4,3-c]azepine-7,4′-tetrahydropyran]-1-yl)propyl 2-methylpyrimidine-4-carboxylate] | > 500 |
| CCc1nn(CCCOC(=O)c2nccc(C)n2)c2c1C(=O)NCC1(CCOCC1)C2 [Example 69, 3-(3-ethyl-4-oxo-spiro[6,8-dihydro-5H-pyrazolo[4,3-c]azepine-7,4′-tetrahydropyran]-1-yl)propyl 4-methylpyrimidine-2-carboxylate] | > 500 |
| CCc1nn(CCCOC(=O)c2cnc(C)nc2)c2c1C(=O)NCC1(CCOCC1)C2 [Example 70, 3-(3-ethyl-4-oxo-spiro[6,8-dihydro-5H-pyrazolo[4,3-c]azepine-7,4′-tetrahydropyran]-1-yl)propyl 2-methylpyrimidine-5-carboxylate] | 100 to 500 |
| CCc1nn(CCCOC(=O)c2cc(C)nn2C)c2c1C(=O)NCC1(CCOCC1)C2 [Example 71, 3-(3-ethyl-4-oxo-spiro[6,8-dihydro-5H-pyrazolo[4,3-c]azepine-7,4′-tetrahydropyran]-1-yl)propyl 2,5-dimethylpyrazole-3-carboxylate] | 100 to 500 |
| CCc1nn(CCCOC(=O)c2cc(C)n(C)n2)c2c1C(=O)NCC1(CCOCC1)C2 [Example 72, 3-(3-ethyl-4-oxo-spiro[6,8-dihydro-5H-pyrazolo[4,3-c]azepine-7,4′-tetrahydropyran]-1-yl)propyl 1,5-dimethylpyrazole-3-carboxylate] | > 500 |
| CCc1nn(CCCOC(=O)c2cnc(C)n2C)c2c1C(=O)NCC1(CCOCC1)C2 [Example 73, 3-(3-ethyl-4-oxo-spiro[6,8-dihydro-5H-pyrazolo[4,3-c]azepine-7,4′-tetrahydropyran]-1-yl)propyl 2,3-dimethylimidazole-4-carboxylate] | 100 to 500 |
| CCc1nn(CCCOC(=O)c2noc(C)c2C)c2c1C(=O)NCC1(CCOCC1)C2 [Example 74, 3-(3-ethyl-4-oxo-spiro[6,8-dihydro-5H-pyrazolo[4,3-c]azepine-7,4′-tetrahydropyran]-1-yl)propyl 4,5-dimethylisoxazole-3-carboxylate] | 100 to 500 |
| CCc1nn(CCCOC(=O)c2c(C)noc2C)c2c1C(=O)NCC1(CCOCC1)C2 [Example 75, 3-(3-ethyl-4-oxo-spiro[6,8-dihydro-5H-pyrazolo[4,3-c]azepine-7,4′-tetrahydropyran]-1-yl)propyl 3,5-dimethylisoxazole-4-carboxylate] | > 500 |
| CCc1nn(CCCOC(=O)c2nc(C)oc2C)c2c1C(=O)NCC1(CCOCC1)C2 [Example 76, 3-(3-ethyl-4-oxo-spiro[6,8-dihydro-5H-pyrazolo[4,3-c]azepine-7,4′-tetrahydropyran]-1-yl)propyl 2,5-dimethyloxazole-4-carboxylate] | > 500 |
| CCc1nn(CCCOC(=O)C2CN(C(C)=O)C2)c2c1C(=O)NCC1(CCOCC1)C2 [Example 77, 3-(3-ethyl-4-oxo-spiro[6,8-dihydro-5H-pyrazolo[4,3-c]azepine-7,4′-tetrahydropyran]-1-yl)propyl 1-acetylazetidine-3-carboxylate] | > 500 |
| CCc1nn(CCCOC(=O)c2cc(C)ns2)c2c1C(=O)NCC1(CCOCC1)C2 [Example 78, 3-(3-ethyl-4-oxo-spiro[6,8-dihydro-5H-pyrazolo[4,3-c]azepine-7,4′-tetrahydropyran]-1-yl)propyl 3-methylisothiazole-5-carboxylate] | 100 to 500 |
| CCc1nn(CCCOC(=O)c2cnsc2C)c2c1C(=O)NCC1(CCOCC1)C2 [Example 79, 3-(3-ethyl-4-oxo-spiro[6,8-dihydro-5H-pyrazolo[4,3-c]azepine-7,4′-tetrahydropyran]-1-yl)propyl 5-methylisothiazole-4-carboxylate] | 100 to 500 |
| CCc1nn(CCCOC(=O)c2ncsc2C)c2c1C(=O)NCC1(CCOCC1)C2 [Example 80, 3-(3-ethyl-4-oxo-spiro[6,8-dihydro-5H-pyrazolo[4,3-c]azepine-7,4′-tetrahydropyran]-1-yl)propyl 5-methylthiazole-4-carboxylate] | 100 to 500 |
| CCc1nn(CCCOC(=O)c2scnc2C)c2c1C(=O)NCC1(CCOCC1)C2 [Example 81, 3-(3-ethyl-4-oxo-spiro[6,8-dihydro-5H-pyrazolo[4,3-c]azepine-7,4′-tetrahydropyran]-1-yl)propyl 4-methylthiazole-5-carboxylate] | 100 to 500 |
| CCc1nn(CCCOC(=O)c2cnc(C)s2)c2c1C(=O)NCC1(CCOCC1)C2 [Example 82, 3-(3-ethyl-4-oxo-spiro[6,8-dihydro-5H-pyrazolo[4,3-c]azepine-7,4′-tetrahydropyran]-1-yl)propyl 2-methylthiazole-5-carboxylate] | 100 to 500 |
| CCc1nn(CCCOC(=O)c2snnc2C)c2c1C(=O)NCC1(CCOCC1)C2 [Example 83, 3-(3-ethyl-4-oxo-spiro[6,8-dihydro-5H-pyrazolo[4,3-c]azepine-7,4′-tetrahydropyran]-1-yl)propyl 4-methylthiadiazole-5-carboxylate] | > 500 |
| CCc1nn(CCCOC(=O)C2CCCSC2)c2c1C(=O)NCC1(CCOCC1)C2 (stereo not drawn) [Example 84, 3-(3-ethyl-4-oxo-spiro[6,8-dihydro-5H-pyrazolo[4,3-c]azepine-7,4′-tetrahydropyran]-1-yl)propyl tetrahydrothiopyran-3-carboxylate] | 100 to 500 |
| CCc1nn(CCCOC(=O)C2CCSCC2)c2c1C(=O)NCC1(CCOCC1)C2 [Example 85, 3-(3-ethyl-4-oxo-spiro[6,8-dihydro-5H-pyrazolo[4,3-c]azepine-7,4′-tetrahydropyran]-1-yl)propyl tetrahydrothiopyran-4-carboxylate] | 100 to 500 |
| CCc1nn(CCCOC(=O)c2cc(C)nc(C)c2)c2c1C(=O)NCC1(CCOCC1)C2 [Example 86, 3-(3-ethyl-4-oxo-spiro[6,8-dihydro-5H-pyrazolo[4,3-c]azepine-7,4′-tetrahydropyran]-1-yl)propyl 2,6-dimethylpyridine-4-carboxylate] | 100 to 500 |
| CCc1nn(CCCOC(=O)c2ccc(C)nc2C)c2c1C(=O)NCC1(CCOCC1)C2 [Example 87, 3-(3-ethyl-4-oxo-spiro[6,8-dihydro-5H-pyrazolo[4,3-c]azepine-7,4′-tetrahydropyran]-1-yl)propyl 2,6-dimethylpyridine-3-carboxylate] | < 100 |

From US11065257B2, “Substituted pyrazoloazepin-4-ones and their use as phosphodiesterase inhibitors” (LEO Pharma A/S, priority 2016, dated 2021)
